One data set concerns the target PRMT5 (Homo sapiens (Human), UniProt O14744). Description: radiometric assay for PRMT5 based on FlashPlate technology. The data set is classed as biochemical. The settings on record: PRMT5 5 nM, [3H]-SAM, 60 min at 25° C.; read-out: Enzymology (IC50). The protocol: The radiometric assay for PRMT5 based on FlashPlate technology was adopted to determine IC50 of the test compound.
After dissolved in dimethyl sulfoxide respectively, the test compounds were added into an Echo Qualified 384-well plate and diluted to the desired concentrations. The diluted test compounds were transferred from the Echo Qualified 384-well plate to a 384-well reaction plate using an Echo 550 instrument, and dimethyl sulfoxide was transferred into both the control and blank wells. PRMT5 was added to 1×reaction buffer (including 10 mM Tris-HCl; pH 8.0; 0.01% Tween-20; 1 mM DTT) to form a 1.67×enzyme solution (at an enzyme concentration of 5 nM). A polypeptide substrate and [3H]-SAM were added to 1× reaction buffer to form a 2.5× substrate solution (the terminal concentrations of the substrates were 100 nM and 250 nM, respectively). At a volume of 15 μL/well, the 1.67× enzyme solution was added into wells of the 384-well reaction plate. In case of the blank wells, the enzyme solution was replaced with 15 μL of the 1× reaction buffer. The reaction plate was centrifuged at 1000 rpm for 1 min, and incubated at room temperature for 15 min. To each well of the 384-well reaction plate, 10 μL of the 2.5× substrate solution was added, centrifuged at 1000 rpm for 1 min, and reacted at 25° C. for 60 min. To each well of the 384-well reaction plate, 5 μL of reaction stop solution (which was […] cold SAM solution) was added to terminate the reaction. From each well of the test plate, 25 μL was measured and transferred to Flashplate and left at room temperature for 1 h. Thereafter, the Flashplate was washed with 0.1% Tween-20 solution three times. Readings were taken with MicroBeta 2. The data was converted into the inhibition rate data. Inhibition rate=(conversion ratecontrol well−conversion ratecompound well)/(conversion ratecontrol well−conversion rateblank well)×100%. The IC50curves were fitted using XLFit5.4.0.8. The fitting equation was as follows:Y=Bottom+(Top-Bottom)/(1+(IC50/X)^HillSlope).

Another data set concerns MV4-11 xenografts. Kind of data set: In vivo efficacy in MV4-11 subcutaneous xenograft model. As to conditions: for d9 Tumor Volume (mm^3): 9th day after administration; for Tumor Weight / Tumor weight inhibition rate (%): 11 days; for Tumor Weight: tumors dissected at end; for Tumor weight inhibition rate (%): versus vehicle group; for d0 Tumor Volume (mm^3): d0, before grouping for administration (baseline); for RTV (d9): relative tumor volume = d9/d0 tumor volume.

The subject of data set [1] is human acute monocytic leukemia cell line MV4-11. Kind of data set: MV4-11 MTT cell growth inhibition. It is filed as cell-based. The settings on record: 144 h, MV4-11 cells, MTT on Day 6. As to the method: The complete medium required for the culture of human acute monocytic leukemia cell line MV4-11 (Shanghai Cell Bank) for experiment was IMDM (Cat NO. 12440-053, gibco) supplemented with 10% FBS (Cat NO. SA311.02, cellmax). The cells were cultured in an incubator at 37° C. with 5% CO2. The experiment reagents included dimethyl sulfoxide (Tianjin Kemiou Chemical Reagent Co., Ltd.) and MTT (THIAZOLYL BLUE TETRAZOLIUM BROMIDE, CAS. NO. 298-93-1, VWR). The control compound GSK3326595 for experiment was homemade or commercially available. The test compound was encapsulated and stored at 4° C.
Dimethyl sulfoxide was used as a vehicle to fully dissolve the test compound, thereby formulating a stock solution at a concentration of 5×10^−2 mol/L. The stock solution was stored at −20° C. With the complete medium as diluent, the test compound was subjected to gradient dilution to afford dilutions at different concentrations for standby application. In a 96-well culture plate, the suspension of the human acute monocytic leukemia cell line MV4-11 in the complete medium, at a volume of 100 μL/well (2×10^3 cells/well), was added. Afterwards, the dilutions at different concentrations of the corresponding test compounds (100 μL/well) were added, respectively. Each of the test compounds was provided with 8 concentration gradients and three replicates were used for each concentration. The plates were incubated in an incubator at 37° C. with 5% CO2. On Day 6, the plate was treated with MTT (20 μL/well) and incubated for 4 h in an incubator at 37° C. with 5% CO2. The supernatant was discarded. Dimethyl sulfoxide (150 μL/well) was added and mixed well by shaking. The OD value at 550 nm was measured with a microplate reader. Wells containing only cell suspensions without the test compounds were control wells, and wells containing only complete media were blank wells. The cell growth inhibition rate was calculated according to the following equation: Inhibition rate=(OD valuecontrol well−OD valuesample well)/(OD valuecontrol well−OD valueblank well)×100%. According to the inhibition rate at each concentration, the half maximal inhibitory concentration IC50 value was calculated using the SPSS software. 2. Enzymatic Experiment

A short description of the next data set: in vivo. The settings on record: male, SD, rat, po, 25 mg/kg.

Marks after values point to notes of the source that are not given here.

Sequence of PRMT5 (O14744 whole entry): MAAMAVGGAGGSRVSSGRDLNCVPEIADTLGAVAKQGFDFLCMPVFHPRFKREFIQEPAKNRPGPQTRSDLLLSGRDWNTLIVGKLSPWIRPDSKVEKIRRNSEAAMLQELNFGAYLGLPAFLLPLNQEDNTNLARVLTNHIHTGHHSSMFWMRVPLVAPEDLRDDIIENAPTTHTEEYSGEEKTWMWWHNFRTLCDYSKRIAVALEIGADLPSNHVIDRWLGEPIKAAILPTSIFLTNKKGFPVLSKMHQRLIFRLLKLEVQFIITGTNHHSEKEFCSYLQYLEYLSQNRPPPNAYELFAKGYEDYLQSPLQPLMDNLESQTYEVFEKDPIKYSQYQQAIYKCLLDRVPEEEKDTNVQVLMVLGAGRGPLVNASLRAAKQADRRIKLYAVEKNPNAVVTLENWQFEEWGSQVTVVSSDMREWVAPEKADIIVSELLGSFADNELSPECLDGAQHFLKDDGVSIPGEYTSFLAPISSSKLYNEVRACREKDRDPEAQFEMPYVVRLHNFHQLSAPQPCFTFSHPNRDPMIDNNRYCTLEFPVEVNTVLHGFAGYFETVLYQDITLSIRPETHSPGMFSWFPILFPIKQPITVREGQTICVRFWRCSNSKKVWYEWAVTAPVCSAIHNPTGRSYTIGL
Sequence of PRMT5 (Q9BQA1 whole entry partner): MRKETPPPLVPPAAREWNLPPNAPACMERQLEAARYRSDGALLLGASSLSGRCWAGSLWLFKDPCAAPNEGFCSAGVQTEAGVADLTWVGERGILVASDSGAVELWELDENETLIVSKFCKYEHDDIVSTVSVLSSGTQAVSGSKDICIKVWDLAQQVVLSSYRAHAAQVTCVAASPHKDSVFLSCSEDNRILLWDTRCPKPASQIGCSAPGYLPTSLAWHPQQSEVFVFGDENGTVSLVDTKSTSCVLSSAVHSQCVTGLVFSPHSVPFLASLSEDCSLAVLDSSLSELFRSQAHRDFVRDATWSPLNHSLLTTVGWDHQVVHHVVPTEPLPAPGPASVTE
Description for MV4-11 xenografts: Experimental female NOD-SCID mice, SPF grade, 4 to 5 weeks, were purchased from Beijing Vital River Laboratory Animal Technology Co., Ltd. The mice were intraperitoneally injected with cyclophosphamide at a dose of 100 mg/kg one day before cell inoculation. The human acute monocytic leukemia cell line MV4-11 (1×10^7/0.1 ml/mouse) was subcutaneously inoculated into forelimb axilla of mice to establish a subcutaneous xenograft model. When the tumor volumes reached about 110 mm^3 (10 days after inoculation), the mice were equally grouped according to the tumor volume, with 5 mice in each group, i.e., vehicle group (2% DMSO+98% (0.2 g/mL) hydroxypropyl-β-cyclodextrin) and test drug groups. For the test drug groups, the dose of administration was 100 mg/kg, the dosing volume was 10 mL/kg, the dosing frequency was BID, the tumor diameters were measured twice per week, and the data was recorded. The mice were administered for 11 consecutive days. When the experiment ended, the tumors were dissected and weighed.

For orientation: IC50 means the concentration at which inhibition is half-maximal. For orientation: AUC(0-t) means the area under the concentration-time curve up to a stated or last time point. As usually defined, the Cmax is the maximum level reached in the sampled fluid or tissue. The term Tmax denotes the time from dosing to the highest level. In the case of `CON=C(C)C(=O)N1CC2(CC(Nc3cc(C(=O)NC[C@H](O)CN4CCc5ccccc5C4)ncn3)C2)C1` [PR-10, (S)-N-(3-(3,4-dihydroisoquinolin-2(1H)-yl)-2-hydroxypropyl)-6-((2-(2-(methoxyimino)propanoyl)-2-azaspiro[3.3]heptan-6-yl)amino)pyrimidine-4-carboxamide], the IC50 at PRMT5 was found to be 16 nM. In the data set on MV4-11 xenografts (100 mg/kg BID), the “d9 Tumor Volume (mm^3)” value is given as 34.3 ± 29.2**## mm^3, the “Tumor Weight” value is 0.0153 ± 0.0105 g, the “Tumor weight inhibition rate (%)” value stood at 97.9% and the “RTV (d9)” value was determined as 0.2 ± 0.2. Also, the “animal death / drug toxicity observation” value in the data set on MV4-11 xenografts (100 mg/kg BID, one animal died due to incorrect gavage) is reported as “the death was not caused by drug toxicity”. In the data set on MV4-11 xenografts, the “d0 Tumor Volume (mm^3)” value was 164.8 ± 32.5 mm^3. Moreover, the midpoint of inhibition in data set [1], the IC50, lay at 0.664 nM. For the same compound, in “in vivo”, the AUC(0-t) is 2040 ng·h/mL, the concentration peaked (Cmax) at 1340 ng/mL and the Tmax was 25 min.

For `CON=C(C)C(=O)N1CCC2(CC1)CC(Nc1cc(C(=O)NC[C@H](O)CN3CCc4ccccc4C3)ncn1)C2` [PR-13, (S)-N-(3-(3,4-dihydroisoquinolin-2(1H)-yl)-2-hydroxypropyl)-6-((7-(2-(methoxyimino)propanoyl)-7-azaspiro[3.5]nonan-2-yl)amino)pyrimidine-4-carboxamide], the IC50 at PRMT5 worked out at 16 nM. In the data set on MV4-11 xenografts (100 mg/kg BID), the “d9 Tumor Volume (mm^3)” value is 69.7 ± 22.9***# mm^3, the “Tumor Weight” value amounted to 0.0679 ± 0.0225 g, the “Tumor weight inhibition rate (%)” value was found to be 90.6% and the “RTV (d9)” value is given as 0.4 ± 0.1. Besides, the “d0 Tumor Volume (mm^3)” value with MV4-11 xenografts is reported as 165.4 ± 30.2 mm^3. Half-maximal inhibition in data set [1] (IC50) required 1.53 nM. In “in vivo”, the AUC(0-t) came to 840 ng·h/mL, the highest level (Cmax) was 516 ng/mL and the time of peak concentration (Tmax) was found to be 50 min.

(Values after US12522584B2, “3,4-dihydroisoquinoline compound and use thereof” (CSPC Zhongqi Pharmaceutical Technology (Shijiazhuang) Co., …, priority 2020, dated 2026).)
